Assay results taken from US20100280986A1, “SYSTEMS AND METHODS FOR TAILORING ACUTE AND CHRONIC VIRAL INFECTION […] INCREASE THE P[…] "CURE" FOR A GIVEN SUBJECT” (Roche Palo Alto, priority 2009, published 2010).

System: HCV
Assay: HCV viral kinetic population model (nonlinear mixed effects) fitted to long-term viral load profiles of 2100 CHC patients
Type: in vivo, human (patients)
From the text: In an embodiment, a population model may account for the ribavirin effect, the natural turnover and proliferation of hepatocytes, and the viral eradication.
In this example, liver physiological/patho-physiology characteristics are incorporated into model 400, such as hepatocyte cell maturation (source s), death rate (death d), maximal liver size (Tmax). Model 400 can be parameterization in terms of a reproductive ratio (RR0) rather than cell infectivity (infection β). A “cure” boundary condition can be provided when a number of infected cells is predicted to be <=1.
HCV viral kinetic model 400 is extended with a density dependent proliferation of hepatocytes [r].
Infectious HCV virions (VI) infect target cells (uninfected hepatocytes) [T] creating productively infected cells (I) at a rate β·V1·T. Uninfected hepatocytes are produced at rate s and die at rate d. Infected hepatocytes die at rate δ. Infectious (VI) and non-infectious (VNI) virions are produced at rate p and cleared at rate c. The measured viral load (V) can be expressed in IU/mL, representing the sum of infectious and non-infectious virions V=VI+VN.
Continuing the example, DoseRBV is the daily dose of ribavirin per kg body weight and ED50RRV is the estimated daily dose in mg/kg rendering 40% of the virions non-infectious. […]

With `NC(=O)c1ncn([C@@H]2O[C@H](CO)[C@@H](O)[C@H]2O)n1` [ribavirin] the “ED50RBV (estimated daily dose rendering virions non-infectious)” value (population estimate, daily dose per kg body weight) was 14.4 mg˜kg^−1·day^−1 and the “Fraction of the virions rendered non-infectious” value (standard ribavirin treatment of 1000/1200 mg per day) was 40-60%.
